# Laboratory results published in ChEMBL document CHEMBL2439971, “Design, synthesis and antiproliferative evaluation of fluorenone analogs with DNA topoisomerase I inhibitory properties” (Bioorg Med Chem, 2013).
# Activity calls are given as the source filed them. The rule behind the calls is not given here.
# Experiments:
# Homo sapiens = species on record: Homo sapiens; assay: Inhibition of telomerase (unknown origin) at 10 uM TRAP assay
# CAKI-1 = assay: Cytotoxicity against human CAKI-1 cells at 10 uM after 48 hrs by sulforhodamine B assay relative to control; type: functional
# MDA-MB-468 = assay: Cytotoxicity against human MDA-MB-468 cells at 10 uM after 48 hrs by sulforhodamine B assay relative to control; type: functional
# T47D = assay: Cytotoxicity against human T47D cells at 10 uM after 48 hrs by sulforhodamine B assay relative to control; type: functional
# BT-549 = assay: Cytotoxicity against human BT549 cells at 10 uM after 48 hrs by sulforhodamine B assay relative to control; type: functional
# [1] = Cytotoxicity against human Hs 578T cells at 10 uM after 48 hrs by sulforhodamine B assay relative to control; type: functional
# MDA-MB-231 = assay: Cytotoxicity against human MDA-MB-231 cells at 10 uM after 48 hrs by sulforhodamine B assay relative to control; type: functional
# MCF7 = assay: Cytotoxicity against human MCF7 cells at 10 uM after 48 hrs by sulforhodamine B assay relative to control; type: functional
# DU-145 = assay: Cytotoxicity against human DU145 cells at 10 uM after 48 hrs by sulforhodamine B assay relative to control; type: functional
# PC-3 [2] = assay: Cytotoxicity against human PC3 cells at 10 uM after 48 hrs by sulforhodamine B assay relative to control; type: functional
# UO-31 = assay: Cytotoxicity against human UO31 cells at 10 uM after 48 hrs by sulforhodamine B assay relative to control; type: functional
# SN12C = assay: Cytotoxicity against human SN12C cells at 10 uM after 48 hrs by sulforhodamine B assay relative to control; type: functional
# RXF 393 = assay: Cytotoxicity against human RXF393 cells at 10 uM after 48 hrs by sulforhodamine B assay relative to control; type: functional
# ACHN = assay: Cytotoxicity against human ACHN cells at 10 uM after 48 hrs by sulforhodamine B assay relative to control; type: functional
# A498 = assay: Cytotoxicity against human A498 cells at 10 uM after 48 hrs by sulforhodamine B assay relative to control; type: functional
# 786-0 = assay: Cytotoxicity against human 786-0 cells at 10 uM after 48 hrs by sulforhodamine B assay relative to control; type: functional
# SK-OV-3 = assay: Cytotoxicity against human SKOV3 cells at 10 uM after 48 hrs by sulforhodamine B assay relative to control; type: functional
# NCI/ADR-RES = assay: Cytotoxicity against human NCI/ADR-RES cells at 10 uM after 48 hrs by sulforhodamine B assay relative to control; type: functional
# OVCAR-8 = assay: Cytotoxicity against human OVCAR8 cells at 10 uM after 48 hrs by sulforhodamine B assay relative to control; type: functional
# OVCAR-5 = assay: Cytotoxicity against human OVCAR5 cells at 10 uM after 48 hrs by sulforhodamine B assay relative to control; type: functional
# OVCAR-3 = assay: Cytotoxicity against human OVCAR3 cells at 10 uM after 48 hrs by sulforhodamine B assay relative to control; type: functional
# IGROV-1 = assay: Cytotoxicity against human IGROV1 cells at 10 uM after 48 hrs by sulforhodamine B assay relative to control; type: functional
# UACC-62 = assay: Cytotoxicity against human UACC62 cells at 10 uM after 48 hrs by sulforhodamine B assay relative to control; type: functional
# UACC-257 = assay: Cytotoxicity against human UACC257 cells at 10 uM after 48 hrs by sulforhodamine B assay relative to control; type: functional
# SK-MEL-5 = assay: Cytotoxicity against human SK-MEL-5 cells at 10 uM after 48 hrs by sulforhodamine B assay relative to control; type: functional
# SK-MEL-28 = assay: Cytotoxicity against human SK-MEL-28 cells at 10 uM after 48 hrs by sulforhodamine B assay relative to control; type: functional
# SK-MEL-2 = assay: Cytotoxicity against human SK-MEL-2 cells at 10 uM after 48 hrs by sulforhodamine B assay relative to control; type: functional
# MDA-MB-435 = assay: Cytotoxicity against human MDA-MB-435 cells at 10 uM after 48 hrs by sulforhodamine B assay relative to control; type: functional
# M14 = assay: Cytotoxicity against human M14 cells at 10 uM after 48 hrs by sulforhodamine B assay relative to control; type: functional
# Malme-3M = assay: Cytotoxicity against human MALME-3M cells at 10 uM after 48 hrs by sulforhodamine B assay relative to control; type: functional
# LOX IMVI = assay: Cytotoxicity against human LOXIMVI cells at 10 uM after 48 hrs by sulforhodamine B assay relative to control; type: functional
# SNB-75 = assay: Cytotoxicity against human SNB75 cells at 10 uM after 48 hrs by sulforhodamine B assay relative to control; type: functional
# U-251 = assay: Cytotoxicity against human U251 cells at 10 uM after 48 hrs by sulforhodamine B assay relative to control; type: functional
# SF-539 = assay: Cytotoxicity against human SF539 cells at 10 uM after 48 hrs by sulforhodamine B assay relative to control; type: functional
# SNB-19 = assay: Cytotoxicity against human SNB19 cells at 10 uM after 48 hrs by sulforhodamine B assay relative to control; type: functional
# SF-295 = assay: Cytotoxicity against human SF295 cells at 10 uM after 48 hrs by sulforhodamine B assay relative to control; type: functional
# SF-268 = assay: Cytotoxicity against human SF268 cells at 10 uM after 48 hrs by sulforhodamine B assay relative to control; type: functional
# SW-620 = assay: Cytotoxicity against human SW620 cells at 10 uM after 48 hrs by sulforhodamine B assay relative to control; type: functional
# KM12 = assay: Cytotoxicity against human KM12 cells at 10 uM after 48 hrs by sulforhodamine B assay relative to control; type: functional
# HT-29 = assay: Cytotoxicity against human HT-29 cells at 10 uM after 48 hrs by sulforhodamine B assay relative to control; type: functional
# HCT-15 = assay: Cytotoxicity against human HCT15 cells at 10 uM after 48 hrs by sulforhodamine B assay relative to control; type: functional
# HCT-116 = assay: Cytotoxicity against human HCT116 cells at 10 uM after 48 hrs by sulforhodamine B assay relative to control; type: functional
# HCC 2998 = assay: Cytotoxicity against human HCC2998 cells at 10 uM after 48 hrs by sulforhodamine B assay relative to control; type: functional
# COLO 205 = assay: Cytotoxicity against human COLO205 cells at 10 uM after 48 hrs by sulforhodamine B assay relative to control; type: functional
# NCI-H522 = assay: Cytotoxicity against human NCI-H522 cells at 10 uM after 48 hrs by sulforhodamine B assay relative to control; type: functional
# NCI-H460 = assay: Cytotoxicity against human NCI-H460 cells at 10 uM after 48 hrs by sulforhodamine B assay relative to control; type: functional
# NCI-H322M = assay: Cytotoxicity against human NCI-H322M cells at 10 uM after 48 hrs by sulforhodamine B assay relative to control; type: functional
# NCI-H23 = assay: Cytotoxicity against human NCI-H23 cells at 10 uM after 48 hrs by sulforhodamine B assay relative to control; type: functional
# NCI-H226 = assay: Cytotoxicity against human NCI-H226 cells at 10 uM after 48 hrs by sulforhodamine B assay relative to control; type: functional
# HOP-92 = assay: Cytotoxicity against human HOP92 cells at 10 uM after 48 hrs by sulforhodamine B assay relative to control; type: functional
# HOP-62 = assay: Cytotoxicity against human HOP62 cells at 10 uM after 48 hrs by sulforhodamine B assay relative to control; type: functional
# A549 = assay: Cytotoxicity against human A549 cells at 10 uM after 48 hrs by sulforhodamine B assay relative to control; type: functional
# RPMI-8226 = assay: Cytotoxicity against human RPMI8226 cells at 10 uM after 48 hrs by sulforhodamine B assay relative to control; type: functional
# MOLT-4 = assay: Cytotoxicity against human MOLT4 cells at 10 uM after 48 hrs by sulforhodamine B assay relative to control; type: functional
# K562 = assay: Cytotoxicity against human K562 cells at 10 uM after 48 hrs by sulforhodamine B assay relative to control; type: functional
# HL-60(TB) = assay: Cytotoxicity against human HL-60(TB) cells at 10 uM after 48 hrs by sulforhodamine B assay relative to control; type: functional
# CCRF-CEM = assay: Cytotoxicity against human CCRF-CEM cells at 10 uM after 48 hrs by sulforhodamine B assay relative to control; type: functional
# PC-3 [3] = assay: Cytotoxicity against human PC3 cells after 48 hrs by sulforhodamine B assay; type: functional, cell-based; details: PC-3, 48 h
# [4] = Cytotoxicity against human NCI60 cells; type: functional
# [5] = biological target: DNA topoisomerase 1 (Homo sapiens) (UniProt P11387); assay: Inhibition of recombinant human DNA topoisomerase 1-mediated relaxation of supercoiled pHOT DNA at 25 to 50 uM after 45 mins by agarose gel electrophoresis
# Sequence of DNA topoisomerase 1 (Homo sapiens) (P11387 whole entry): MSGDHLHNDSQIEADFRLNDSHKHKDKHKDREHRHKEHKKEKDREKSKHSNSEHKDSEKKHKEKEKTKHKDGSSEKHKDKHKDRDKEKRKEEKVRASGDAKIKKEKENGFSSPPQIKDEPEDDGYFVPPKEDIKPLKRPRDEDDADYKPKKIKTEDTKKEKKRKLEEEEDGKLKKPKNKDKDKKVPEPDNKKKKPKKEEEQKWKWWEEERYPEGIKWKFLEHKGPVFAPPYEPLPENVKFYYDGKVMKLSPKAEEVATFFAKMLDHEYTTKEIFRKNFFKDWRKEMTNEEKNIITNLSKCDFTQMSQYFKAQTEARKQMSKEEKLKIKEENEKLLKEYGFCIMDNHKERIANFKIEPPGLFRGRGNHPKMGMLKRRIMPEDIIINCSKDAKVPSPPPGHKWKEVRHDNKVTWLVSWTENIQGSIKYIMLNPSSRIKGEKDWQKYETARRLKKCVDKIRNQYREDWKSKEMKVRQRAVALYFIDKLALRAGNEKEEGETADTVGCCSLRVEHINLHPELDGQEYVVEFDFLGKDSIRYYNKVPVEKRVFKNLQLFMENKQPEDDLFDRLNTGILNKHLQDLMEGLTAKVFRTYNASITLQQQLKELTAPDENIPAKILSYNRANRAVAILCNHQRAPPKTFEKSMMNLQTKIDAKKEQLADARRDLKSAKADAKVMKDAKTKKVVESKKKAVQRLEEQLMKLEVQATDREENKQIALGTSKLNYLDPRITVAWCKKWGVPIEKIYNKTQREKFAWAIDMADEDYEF
compound,measurement,setting,value
CCSCCC(=O)Nc1ccc2c(c1)C(=O)c1cc(NC(=O)CCSCC)ccc1-2,inhibition,Homo sapiens,inactive
same,Activity,CAKI-1,108.37%
same,Activity,MDA-MB-468,109.99%
same,Activity,T47D,103.44%
same,Activity,BT-549,97.04%
same,Activity,[1],109.39%
same,Activity,MDA-MB-231,118.39%
same,Activity,MCF7,94.51%
same,Activity,DU-145,112.53%
same,Activity,PC-3 [2],100%
same,Activity,UO-31,92.9%
same,Activity,SN12C,102.91%
same,Activity,RXF 393,105.75%
same,Activity,ACHN,112.08%
same,Activity,A498,124.53%
same,Activity,786-0,96.11%
same,Activity,SK-OV-3,110.74%
same,Activity,NCI/ADR-RES,103.59%
same,Activity,OVCAR-8,94.28%
same,Activity,OVCAR-5,109.71%
same,Activity,OVCAR-3,123.89%
same,Activity,IGROV-1,122.92%
same,Activity,UACC-62,107.97%
same,Activity,UACC-257,113.41%
same,Activity,SK-MEL-5,108.49%
same,Activity,SK-MEL-28,103.35%
same,Activity,SK-MEL-2,117.38%
same,Activity,MDA-MB-435,112.56%
same,Activity,M14,101.8%
same,Activity,Malme-3M,125.15%
same,Activity,LOX IMVI,69.5%
same,Activity,SNB-75,92.1%
same,Activity,U-251,102.62%
same,Activity,SF-539,86.16%
same,Activity,SNB-19,106.91%
same,Activity,SF-295,85.58%
same,Activity,SF-268,122.03%
same,Activity,SW-620,116.5%
same,Activity,KM12,117.91%
same,Activity,HT-29,92.74%
same,Activity,HCT-15,104.94%
same,Activity,HCT-116,100.1%
same,Activity,HCC 2998,107.5%
same,Activity,COLO 205,118.9%
same,Activity,NCI-H522,90.06%
same,Activity,NCI-H460,108.3%
same,Activity,NCI-H322M,117.16%
same,Activity,NCI-H23,100.62%
same,Activity,NCI-H226,104.85%
same,Activity,HOP-92,103.43%
same,Activity,HOP-62,119.93%
same,Activity,A549,106.07%
same,Activity,RPMI-8226,103.94%
same,Activity,MOLT-4,102.08%
same,Activity,K562,102.87%
same,Activity,HL-60(TB),109.4%
same,Activity,CCRF-CEM,96.61%
same,IC50,PC-3 [3],> 30 µM
O=C(CCN1CCCC1)Nc1ccc2c(c1)C(=O)c1cc(NC(=O)CCN3CCCC3)ccc1C2=O,GI50,[4],3.89 µM
CN(C)CC(=O)Nc1ccc2c(c1)C(=O)c1cc(NC(=O)CN(C)C)ccc1C2=O,inhibition,[5],Active
same,GI50,[4],2.09 µM
